One assay concerns S. pneumoniae. The assay is described as follows: MIC, resazurin broth microdilution. The assay is classed as cell-based, Streptococcus pneumoniae. (In general: Alamar Blue is a resazurin reagent that responds to reducing activity.)
The next assay has as its system M. tuberculosis. The assay is described as follows: MIC, resazurin broth microdilution. Format: cell-based, Mycobacterium tuberculosis. To be noted: for MIC: M. tuberculosis, media 7H9G-ADC.
The next assay concerns E. coli. The assay is described as follows: MIC, resazurin broth microdilution. Format: cell-based, Escherichia coli. To be noted: media LB.
In a further assay the target is T1, FMNAT activity of CaFADS (Corynebacterium ammoniagenes, UniProt Q59263).
T1 construct: made in house; host or cells: Escherichia coli BL21(DE3)
T1 sequence (Q59263 whole entry): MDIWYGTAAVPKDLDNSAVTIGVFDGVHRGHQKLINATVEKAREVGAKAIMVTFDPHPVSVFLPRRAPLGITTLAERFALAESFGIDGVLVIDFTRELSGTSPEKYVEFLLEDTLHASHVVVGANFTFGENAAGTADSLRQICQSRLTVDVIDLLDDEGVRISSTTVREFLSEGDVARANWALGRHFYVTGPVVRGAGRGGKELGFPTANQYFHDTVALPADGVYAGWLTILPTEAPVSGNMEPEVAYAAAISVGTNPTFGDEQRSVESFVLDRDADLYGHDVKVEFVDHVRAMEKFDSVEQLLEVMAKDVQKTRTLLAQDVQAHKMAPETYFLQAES
Kind of assay: Inhibition of the FMNAT activity of CaFADS. To be noted: 25 °C; for FMNAT % Res. act. 250 μM: residual activity at 250 μM of compound. The assay is classed as biochemical. As for the experimental part: (§1) To determine the compound’s ability to inhibit the RFK and/or the FMNAT activities of CaFADS, both enzymatic activities were quantitatively measured in the absence and presence of the compounds following previously described protocols. Reaction mixtures contained 50 μM ATP, 5 μM RF in 20 mM PIPES, pH 7.0, 0.8 mM MgCl2, when assaying the RFK activity, and 50 μM ATP, 10 μM FMN in 20 mM PIPES, pH 7.0, 10 mM MgCl2 when measuring the FMNAT reaction. Each compound was tested at 250 μM (0.5% residual final concentration of DMSO) for each of the two enzymatic reactions. The samples were pre-incubated at 25 °C, the reaction was then initiated by the addition of ∼ 40 nM CaFADS (final concentration) and allowed for 1 min. Finally, the reaction was stopped by boiling the samples for 5 min and the denatured protein was eliminated through centrifugation. The transformation of RF into FMN and FAD (RFK activity) and of FMN into FAD (FMNAT activity) was evaluated through flavins separation by HPLC (Waters), as previously described. All the experiments were performed in triplicate. To evaluate the potency of compounds as inhibitors, we took advantage of the decrease in quantum yield of fluorescence when FMN is transformed into FAD, which allows to follow such transformation in a continuous system. Measurements were carried out using a microplate reader Synergy HT multimode plate reader (Biotek) with BRAND 96-well plates pure Grade. Reaction mixtures contained 5 μM RF or FMN, and 50 μM ATP in 20 mM PIPES, pH 7.0, 10 mM MgCl2, and the inhibitor compound in a 5-250 μM concentration range (2% residual final concentration of DMSO). Reactions were initiated through addition of 0.4 μM CaFADS, being the final reaction volume 100 μL. Flavin fluorescence (excitation at 440 nm and emission at 530 nm) was registered at 25 °C, every 50 s during 15 min. The fluorescence change per time unit (ΔF/Δt) was calculated as the slope of the resulting fluorescence decays recorded between 0 and 6 min (linear decay of the fluorescence). Controls which contained the reaction mixture without the enzyme and without any potential CaFADS inhibitory compound were included in the assay and referred as the 0% and 100% of enzymatic activity, respectively. IC50 was calculated as the concentration of compound required for a 50% inhibition of the enzymatic activity.

The test system of a further assay is P. aeruginosa. The assay is described as follows: MIC, resazurin broth microdilution. The following applies: media MH. Format: cell-based, Pseudomonas aeruginosa.
A further assay deals with C. glutamicum. The assay is described as follows: MIC, resazurin broth microdilution. The assay is classed as cell-based, Corynebacterium glutamicum. The following applies: media BHI.
Another assay addresses T2, CaFADS (Corynebacterium ammoniagenes, UniProt Q59263).
T2 construct: made in house; host or cells: Escherichia coli BL21(DE3)
Kind of assay: Differential scanning fluorescence (thermal denaturation) binding to CaFADS. To be noted: for Tm shift of CaFADS thermal denaturation: 2 μM CaFADS, compound up to 250 μM; for Kd: from differential scanning fluorescence data fitted to Eq 2, 20 mM PIPES pH 7.0, 10 mM MgCl2, 2% DMSO, n = 3, mean ± SD. The procedure:
Interaction of compounds with CaFADS was evaluated using fluorescence thermal denaturation, on the bases of the shifts in denaturation midpoints of thermal curves of the protein [65]. Denaturations were performed in a Stratagene Agilent Mx3005p qPCR instrument (Santa Clara, US) following SYPR Orange (ThermoFisher Scientific) emission fluorescence (excitation at 492 nm and emission at 610 nm), which greatly increases when this probe binds to protein hydrophobic regions becoming solvent exposed upon thermal unfolding. Solutions containing 2 μM CaFADS with the studied compound in an increasing 5-250 μM concentration range (2% residual final concentration of DMSO) and 5xSYPR Orange in 20 mM PIPES pH 7.0, 10 mM MgCl2, with a 100 μL total volume were dispensed into 96-well microplates (BRAND 96-well plates pure grade™). After an initial 1 min incubation at 25 °C within the equipment, unfolding curves were registered from 25 to 100 °C at 1 °C·min^−1. Control experiments with CaFADS samples with/without DMSO were routinely performed in each microplate. For those compounds shifting midpoint denaturation temperature, Tm, the dissociation constant, Kd, was predicted by fitting the data to the equation [66] ΔTm/Tm=NRTm0/ΔH0ln(1+[L]/Kd), (2) which estimates the extent of the ligand-induced protein stabilization/destabilization. ΔTm=|Tm-Tm0| with Tm0 and Tm being the midpoint denaturation temperatures in the absence and the presence of ligand, respectively, and ΔH0 the unfolding enthalpy of the protein in the absence of ligand.
On the technique in general: DSF heats the sample and reads unfolding from a dye or from intrinsic fluorescence.

The subject of another assay is L. monocytogenes. The assay is described as follows: MIC, resazurin broth microdilution. The following applies: media BHI. Format: cell-based, Listeria monocytogenes.
A further assay deals with C. diphteriae. The assay is described as follows: MIC, resazurin broth microdilution. The assay is classed as cell-based, Corynebacterium diphteriae.
The test system of another assay is C. ammoniagenes. The assay is described as follows: MIC, resazurin broth microdilution. Format: cell-based, Corynebacterium ammoniagenes. To be noted: for MIC: C. ammoniagenes.
Assay [1] concerns the target T3, RFK+FMNAT CaFADS activities (Corynebacterium ammoniagenes, UniProt Q59263).
T3 construct: made in house; host or cells: Escherichia coli BL21(DE3)
The assay is described as follows: Inhibition of the RFK+FMNAT activity of CaFADS. The assay is classed as biochemical. The following applies: 25 °C; for RFK+FMNAT % Res. act. 250 μM: residual activity at 250 μM of compound. As for the experimental part: as §1

The test system of another assay is Mycobacteriumspecies. The assay is described as follows: MIC against Mycobacterium species (S5 Fig legend). Format: cell-based.
For the next assay, the system named is M. smegmatis. The assay is described as follows: MIC, resazurin broth microdilution. The assay is classed as cell-based, Mycobacterium smegmatis. To be noted: media 7H9G-ADC.
For a further assay, the system named is S. aureus. The assay is described as follows: MIC, resazurin broth microdilution. Format: cell-based, Staphylococcus aureus. The following applies: media MH.
The test system of the next assay is S. thyphimurium. Kind of assay: MIC, resazurin broth microdilution. Format: cell-based, Salmonella thyphimurium. The following applies: media MH.

≈ marks a conversion by molar mass, not a printed value.

T2 sequence (Q59263 whole entry): as above
T3 sequence (Q59263 whole entry): as above

As to `CC1(C(=O)O)CCC2C(CCC3CC(O)CCC32C)C1C=C1Nc2ccccc2C1=O` (stereo not drawn) [Compound C3, 7-hydroxy-2,4b-dimethyl-1-[(3-oxo-2,3-dihydro-1H-2-indolyliden)methyl]perhydro-2-phenanthrenecarboxylic acid], the MIC with S. pneumoniae (media BHI) is 256 µM (≈ 108 µg/mL); in the assay with S. pneumoniae (media MH) it was 256 µM (≈ 108 µg/mL); against M. tuberculosis, 256 µM (≈ 108 µg/mL); in the assay on E. coli, above 64 µM; against P. aeruginosa, above 256 µM; in the assay on C. glutamicum, above 64 µM. The MIC was above 64 µM in the assay with L. monocytogenes; above 64 µM in the assay with C. diphteriae (media BHI); above 256 µM against C. diphteriae (media MH); above 64 µM in the assay on C. ammoniagenes (media BHI); above 256 µM against C. ammoniagenes (media MH); above 256 µM against C. ammoniagenes (media MH+DFO). The MIC against C. ammoniagenes (media MH+DIP), with C. ammoniagenes (media MH+DIP+DFO), against M. smegmatis, against S. aureus and in the assay on S. thyphimurium was above 256 µM throughout. Besides, the “MIC (μM) M. tuberculosis” value in the assay on M. tuberculosis (Table 3) came out at 256 µM (≈ 108 µg/mL). The IC50 on FMNAT activity of CaFADS (kinetic measurements, 5 μM FMN, 50 μM ATP, 20 mM PIPES pH 7.0, 10 mM MgCl2, 2% DMSO) stood at 238 ± 7 µM; in assay [1] (kinetic measurements, 20 mM PIPES pH 7.0, 10 mM MgCl2, 2% DMSO), 248 ± 3 µM. Further, the “FMNAT % Res. act. 250 μM” value on FMNAT activity of CaFADS amounted to 48 ± 3%. Moreover, at CaFADS, the “Tm shift of CaFADS thermal denaturation” value was “shifted it to lower values”. This compound also returned a Kd on CaFADS of 18 ± 8 µM. Besides, the “MIC (μM) C. ammoniagenes” value against C. ammoniagenes (Table 3) was above 256 µM. In [1], the “RFK+FMNAT % Res. act. 250 μM” value was found to be 48 ± 5%. In addition, the “MIC Mycobacterium species” value with Mycobacteriumspecies is “lower than 256 μM”.

As to `Cc1c(N=CN(C(=O)c2ccccc2)c2cccc([N+](=O)[O-])c2C)cccc1[N+](=O)[O-]` [Compound C7, N1-(2-methyl-3-nitrophenyl)-N1-{[(2-methyl-3-nitrophenyl)imino]methyl}benzamide], the MIC in the assay on M. tuberculosis, with E. coli, against P. aeruginosa, in the assay with C. glutamicum, against L. monocytogenes and in the assay with C. diphteriae (media MH) was above 256 µM throughout. The MIC against C. ammoniagenes (media MH), against C. ammoniagenes (media MH+DFO), in the assay on C. ammoniagenes (media MH+DIP), against C. ammoniagenes (media MH+DIP+DFO), in the assay with S. aureus and in the assay with S. thyphimurium was above 256 µM throughout. In addition, the “FMNAT % Res. act. 250 μM” value at FMNAT activity of CaFADS is recorded as above 95%. The “RFK+FMNAT % Res. act. 250 μM” value in [1] came out at 82 ± 7%.

Take `CSC(=NS(=O)(=O)c1c(C)noc1C)NNC(=O)Nc1ccc(Cl)cc1` [Compound C9, N1-(4-chlorophenyl)-2-[{[(3,5-dimethylisoxazol-4-yl)sulfonyl]imino}(methylthio)methyl]hydrazine-1-carboxamide]: the MIC with S. pneumoniae (media BHI) is listed as above 256 µM; in the assay on S. pneumoniae (media MH) it was above 256 µM; with M. tuberculosis, above 256 µM; with E. coli, above 64 µM; with P. aeruginosa, above 256 µM; in the assay on C. glutamicum it was above 64 µM. Besides, the MIC with L. monocytogenes is given as above 64 µM; in the assay on C. diphteriae (media BHI), above 64 µM; in the assay on C. diphteriae (media MH), above 256 µM; against C. ammoniagenes (media BHI) it was above 64 µM; in the assay on C. ammoniagenes (media MH), above 256 µM; in the assay on C. ammoniagenes (media MH+DFO), above 256 µM. Also, the MIC in the assay with C. ammoniagenes (media MH+DIP), in the assay with C. ammoniagenes (media MH+DIP+DFO), against M. smegmatis, in the assay with S. aureus and in the assay with S. thyphimurium was above 256 µM in each case. Besides, the “FMNAT % Res. act. 250 μM” value at FMNAT activity of CaFADS came out at 56 ± 6%. In addition, at CaFADS, the “Tm shift of CaFADS thermal denaturation” value is reported as “more than 3 degrees”. This compound had a Kd on CaFADS of 6.4 ± 1.2 µM. Besides, the “RFK+FMNAT % Res. act. 250 μM” value in assay [1] came to 76 ± 3%.

On to `O=C(NCCNc1ccc(C(F)(F)F)cc1[N+](=O)[O-])c1cccnc1Oc1ccccc1` [Compound C26, N-{2-[2-nitro-4-(trifluoromethyl)anilino]ethyl}-2-phenoxynicotinamide], for which the MIC against M. tuberculosis, against E. coli, against P. aeruginosa, in the assay with C. glutamicum, with L. monocytogenes and with C. diphteriae (media MH) was above 256 µM throughout. In addition, the MIC in the assay with C. ammoniagenes (media MH), in the assay with C. ammoniagenes (media MH+DFO), against C. ammoniagenes (media MH+DIP), against C. ammoniagenes (media MH+DIP+DFO), against S. aureus and with S. thyphimurium was above 256 µM in each case. Besides, the “FMNAT % Res. act. 250 μM” value at FMNAT activity of CaFADS stood at 72 ± 6%. Besides, the “RFK+FMNAT % Res. act. 250 μM” value in [1] came out at 84 ± 4%.

The term MIC denotes the smallest concentration in the dilution series that meets the test's criterion for growth inhibition. Broadly, the IC50 is the concentration at which inhibition is half-maximal. A word on the Kd: it is the concentration at which binding is half-saturated. The low end stands for tighter binding, the high end for weaker binding.

For the origin of these results see publication PMC7449411, “In silico discovery and biological validation of ligands of FAD synthase, a promising new antimicrobial target” (PLoS Computational Biology, 2020).
